How the values were obtained:
hBMECs = experiment: Peptide cytotoxicity assay (XTT); assay type: cell-based, human; conditions: 1 μM, 2 μM, 4 μM and 6 μM; 24 h
Method: The toxicity of peptides was determined by the XTT test (AppliChem, USA) as per the manufacturer’s instructions. Details are presented in Supplementary Method S15. […]
Cytotoxicity assay. hBMECs were cultured in 96-well TPP tissue culture plates (Sigma) in supplemented EBM-2 medium (Lonza) to obtain ~70% confluency (as described in Supplementary Method S1). The peptides in concentrations of 1 µM, 2 µM, 4 µM, and 6 µM (diluted in 100 µL of EBM-2 medium supplemented only with 10% FBS, 10 mM HEPES and 1 ng/mL bFGF; Sigma) were added and incubated for 24 h at 37°C in a humid atmosphere of 5% CO2. Untreated cells served as a negative control (100% viability). For positive control, cells treated with 0.01% Triton X-100 were used. After incubation, the mixture of XTT and activation reagent (5:0.1 [v/v], 50 µL each well) was added to each well and incubated for an additional 3 h at 37°C in a humid atmosphere of 5% CO2. The absorbance was measured at 450 nm. The assay was performed in replicates. The viability (%) of endothelial cells was calculated using the formula: Cell viability (%) = [(A - xA ) × 100] / (xA -

Hemolysis assay = assay type: cell-based; conditions: sheep, red blood cells (washed, in saline); 1 μM and 6 μM; 1 h and 5 h; threshold for hemolytic activity > 10%; read-out: hemolysis, maximum release of the hemoglobin
Method: Hemolysis assay was performed according to the method of Bender et al.[94]. Details are presented in Supplementary Method S16. […]
Assessment of the hemolytic activity. Sheep whole blood (10 mL) was centrifuged at 2000 rpm for 5 min at room temperature. The red blood cells (RBCs) were carefully separated from […]
plasma and washed 3 times with saline (0.9% NaCl). The washed RBCs were resuspended in saline (50 mL). Peptides at two different concentrations (1 µM and 6 µM) resuspended in saline solution (100 µL) were added to the RBCs suspension (100 µL). As a positive control (100% lysis), 0.1% Triton X-100 was used. Negative control (0% lysis) was prepared by adding only saline (100 µL) to the RBCs suspension (100 µL). All samples were incubated at 37°C for 1 h and 5 h. The mixtures were gently shaked every 30 min. After incubation, the RBCs were separated by centrifugation (2000 rpm for 5 min) and the supernatant (100 µL) was incubated for 30 min at ambient conditions to oxidize the hemoglobin. The absorbance of oxyhemoglobin present in the supernatant was assessed by absorption at 414 nm. The assay was performed in triplicates. The hemolysis (%) of the RBCs was calculated using the following formula: Hemolysis (%) = [(Asample - xĀ negative control) / xĀ positive control] × 100. […]
(TCID50/ml) exactly as described before1. […]

CC[C@H](C)[C@@H]1NC(=O)[C@@H](NC(=O)[C@H](C)N)CSSC[C@@H](C(=O)NCC(=O)NCC(=O)NCC(=O)N[C@@H](CO)C(=O)O)NC(=O)[C@H](C)NC(=O)[C@H](CCCNC(=N)N)NC(=O)[C@H]([C@@H](C)O)NC(=O)[C@H](CO)NC(=O)[C@H](CO)NC(=O)[C@H](Cc2c[nH]cn2)NC1=O [CP4, CIHSSTRAC]
cytotoxic effect on hBMECs (XTT) (hBMECs): None of the peptides was toxic | hemolysis (Hemolysis assay): < 0.15%

From publication PMC8505397, “Development of peptides targeting receptor binding site of the envelope glycoprotein to contain the West Nile virus infection” (Scientific Reports, 2021)
